Experimental data taken from the supplement of paper PMC10307832.

Tests used:
Experiment in all cases: relative viability (nuclei count vs DMSO), 5 days (fraction); higher = more cells survive
[1] = compound: Cc1cnc(CNC(=O)c2c(=O)c3ccc(N4CCCN(C)CC4)nc3n3c2sc2ccccc23)cn1 [CX-5461] + Cc1nc(NC(=O)N2CCC[C@H]2C(N)=O)sc1-c1ccnc(C(C)(C)C(F)(F)F)c1 [Alpelisib] (partner 2 µM)
How it was run: (§1)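 Nuclei were stained with Hoechst during a one-step fixation (final 0.05% Triton X-100, 1% formaldehyde, 1 ug/ml Hoechst) carried out 5 days after dosing, then counted on 4× images. The cells, lung cancer lines in 1536-well plates, had been dosed by pin tool the day after seeding with one drug alone or a fixed anchor-drug dose plus five library-drug doses (not always all listed) in √10 steps. Relative viability is the nuclei count in treated wells divided by that in vehicle wells, and each value is the median of duplicate plates.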

[2] = compound: Cc1cnc(CNC(=O)c2c(=O)c3ccc(N4CCCN(C)CC4)nc3n3c2sc2ccccc23)cn1 [CX-5461] + Cc1nc(Nc2ncc(C(=O)Nc3c(C)cccc3Cl)s2)cc(N2CCN(CCO)CC2)n1 [Dasatinib] (partner 0.075 µM)
How it was run: as §1

[3] = compound: O=C(Nc1cc(C(F)(F)F)cc(C(F)(F)F)c1)c1cc(Cl)ccc1O [IMD-0354] + COc1cc2c(Oc3ccc(NC(=O)C4(C(=O)Nc5ccc(F)cc5)CC4)cc3F)ccnc2cc1OCCCN1CCOCC1 [Foretinib] (partner 0.25 µM)
How it was run: as §1

[4] = compound: O=C(Nc1cc(C(F)(F)F)cc(C(F)(F)F)c1)c1cc(Cl)ccc1O [IMD-0354] + N=C(N)NC(=N)NCCc1ccccc1 [Phenformin] (partner 250 µM)
How it was run: as §1

Cell Line	relative viability ([1]; first compound 0.01 µM)	relative viability ([1]; first compound 0.03162 µM)	relative viability ([1]; first compound 0.1 µM)	relative viability ([1]; first compound 0.3162 µM)	relative viability ([1]; first compound 1 µM)	relative viability ([2]; first compound 0.01 µM)	relative viability ([2]; first compound 0.03162 µM)	relative viability ([2]; first compound 0.1 µM)	relative viability ([2]; first compound 0.3162 µM)	relative viability ([2]; first compound 1 µM)	relative viability ([3]; first compound 0.04 µM)	relative viability ([3]; first compound 0.1265 µM)	relative viability ([3]; first compound 0.4 µM)	relative viability ([3]; first compound 1.265 µM)	relative viability ([3]; first compound 4 µM)	relative viability ([4]; first compound 0.04 µM)	relative viability ([4]; first compound 0.1265 µM)	relative viability ([4]; first compound 0.4 µM)	relative viability ([4]; first compound 1.265 µM)	relative viability ([4]; first compound 4 µM)
NCI-H2347	1.11	1.04	1.07	0.834	0.994	0.336	0.295	0.4	0.333	0.328	1.11	0.842	0.523	0.599	0.513	0.396	0.381	0.272	0.149	0.218
NCI-H2405	0.851	0.871	0.907	0.525	0.624	0.224	0.204	0.197	0.205	0.193	1.1	1.02	0.926	0.365	0.303	0.445	0.398	0.286	0.245	0.166
NCI-H3122	0.836	0.951	0.762	0.773	0.677	0.821	0.942	0.828	0.824	0.346	0.959	0.964	0.722	0.779	0.129	0.401	0.339	0.136	0.064	0.0975
PC-3 [JPC-3]	1.06	1.08	1.02	1.07	0.932	0.967	1.09	1.01	1.04	0.972	1.07	1	0.61	0.376	0.272	0.508	0.449	0.459	0.264	0.291
PC-14	0.947	1.23	1.05	0.933	0.883	0.312	0.251	0.295	0.272	0.0972	1.05	0.799	0.698	0.546	0.179	0.817	0.59	0.221	0.107	0.112
RERF-LC-KJ	0.832	0.951	0.933	0.754	0.773	0.913	0.94	0.809	0.924	0.522	0.934	0.93	0.568	0.471	0.214	0.478	0.423	0.337	0.289	0.207
SK-LU-1	1.08	1.35	0.724	0.945	0.332	0.178	0.159	0.142		0.102	0.808	0.752	0.457	0.169	0.221	0.713	0.413	0.303	0.193	0.187
SK-MES-1	0.886	0.964	1.08	0.952	0.522	0.339	0.387	0.397	0.344	0.198	0.876	0.66	0.831	0.782	0.324	0.747	0.583	0.422	0.356	0.241
SW 1573	0.733	0.788	0.91	0.822	0.36	0.528	0.396	0.302	0.502	0.17	0.891	0.928	0.579	0.61	0.123	0.397	0.265	0.18	0.0898	0.103
